Assay results from publication PMC7721803, “Development of a penem antibiotic against Mycobacteroides abscessus” (Communications Biology, 2020).
In brackets after ≈: the same amount, converted by molar mass. Read-outs that look alike come from different tables or passages of the source.

Key:
[1] = cited from earlier work
[2] = tested on: M. abscessus; assay: MIC by broth dilution method (Middlebrook 7H9); type: cell-based, Mycobacteroides abscessus; conditions: for MIC50 / MIC90: clinical M. abscessus strains of Table 1; for MIC50: read-out: MIC50; for MIC90: read-out: MIC90
[3] = tested on: M. abscessus ATCC 19977; type: cell-based, Mycobacteroides abscessus; conditions: drug alone at its individual MIC (T405 2 µg/mL, imipenem 8 µg/mL)
[4] = in vivo; set-up: species or system BALB/c mice; conditions: female, BALB/c, mouse, 25 mg/kg, T405 concentration in blood
Experimental: All procedures involving mice were approved by the Animal Care and Use Committee of Johns Hopkins University. […] Blood was sampled from three mice per group per time point by mandibular vein puncture or cardiac puncture at the following time points: 5, 15, 30, 60, 120, and 240 min post-dose. Plasma was separated in heparin-containing tubes and frozen. […] Concentration–time data were analyzed by standard non-compartmental and compartmental techniques using WinNonlin (version 7.0; Pharsight, Mountain View, CA). A one-compartmental model was used to perform simulations to predict the plasma concentration–time profile after subcutaneous doses of 150, 300, and 450 mg/kg, alone and in combination with probenecid. A plasma free drug fraction of 2% of the total drug concentration was included in the simulations.

[5] = Mycobacteroides abscessus, ATCC19977, reference strain ATCC 19977, read-out: MIC
[6] = Mycobacteroides abscessus, clinical isolate 1N, read-out: MIC
[7] = Mycobacteroides abscessus, clinical isolate 2N, read-out: MIC
[8] = Mycobacteroides abscessus, clinical isolate 3N, read-out: MIC
[9] = Mycobacteroides abscessus, clinical isolate 4N, read-out: MIC
[10] = Mycobacteroides abscessus, clinical isolate 5N, read-out: MIC
[11] = Mycobacteroides abscessus, clinical isolate 8N, read-out: MIC
[12] = Mycobacteroides abscessus, clinical isolate 11N, read-out: MIC
[13] = Mycobacteroides abscessus, clinical isolate 13N, read-out: MIC
[14] = Mycobacteroides abscessus, clinical isolate 14N, read-out: MIC
[15] = Mycobacteroides abscessus, clinical isolate 202, read-out: MIC
[16] = Mycobacteroides abscessus, clinical isolate 203, read-out: MIC
[17] = Mycobacteroides abscessus, clinical isolate 204, read-out: MIC
[18] = Mycobacteroides abscessus, clinical isolate 214, read-out: MIC
[19] = Mycobacteroides abscessus, clinical isolate 215, read-out: MIC
[20] = Mycobacteroides abscessus, clinical isolate JH1801, read-out: MIC
[21] = Mycobacteroides abscessus, clinical isolate JH1802, read-out: MIC
[22] = Mycobacteroides abscessus, clinical isolate JHH2, read-out: MIC
[23] = Mycobacteroides abscessus, clinical isolate JHH4, read-out: MIC
[24] = Mycobacteroides abscessus, clinical isolate JHH9, read-out: MIC
[25] = Mycobacteroides abscessus, clinical isolate JHHKB, read-out: MIC

| SMILES | MIC [2, 5] | MIC [2, 6] | MIC [2, 7] | MIC [2, 8] | MIC [2, 9] | MIC [2, 10] | MIC [2, 11] | MIC [2, 12] | MIC [2, 13] | MIC [2, 14] | MIC [2, 15] | MIC [2, 16] | MIC [2, 17] | MIC [2, 18] | MIC [2, 19] | MIC [2, 20] | MIC [2, 21] | MIC [2, 22] | MIC [2, 23] | MIC [2, 24] | further results |
| --- | --- | --- | --- | --- | --- | --- | --- | --- | --- | --- | --- | --- | --- | --- | --- | --- | --- | --- | --- | --- | --- |
| C[C@@H](O)[C@H]1C(=O)N2C(C(=O)O)=C([C@H]3CCCO3)S[C@H]12 [Faropenem] | 512 µg/mL (≈ 1790 µM) | 256 µg/mL (≈ 897 µM) | 256 µg/mL (≈ 897 µM) | 256 µg/mL (≈ 897 µM) | 256 µg/mL (≈ 897 µM) | 512 µg/mL (≈ 1790 µM) | 512 µg/mL (≈ 1790 µM) | 512 µg/mL (≈ 1790 µM) | 64 µg/mL (≈ 224 µM) | 512 µg/mL (≈ 1790 µM) | 512 µg/mL (≈ 1790 µM) | 128 µg/mL (≈ 449 µM) | 512 µg/mL (≈ 1790 µM) | 128 µg/mL (≈ 449 µM) | 512 µg/mL (≈ 1790 µM) | 512 µg/mL (≈ 1790 µM) | 256 µg/mL (≈ 897 µM) | 512 µg/mL (≈ 1790 µM) | 512 µg/mL (≈ 1790 µM) | 512 µg/mL (≈ 1790 µM) | half-life in mice [1]: 11.4 min; MIC [2, 25]: 512 µg/mL (≈ 1790 µM); MIC50 ([2]; Mycobacteroides abscessus): 512 µg/mL (≈ 1790 µM); MIC90 ([2]; Mycobacteroides abscessus): 512 µg/mL (≈ 1790 µM) |
| C[C@@H](O)[C@H]1C(=O)N2C(C(=O)O)=C(SCCN=CN)C[C@H]12 [Imipenem] | 8 µg/mL (≈ 26.7 µM) | 8 µg/mL (≈ 26.7 µM) | 8 µg/mL (≈ 26.7 µM) | 8 µg/mL (≈ 26.7 µM) | 16 µg/mL (≈ 53.4 µM) | 16 µg/mL (≈ 53.4 µM) | 32 µg/mL (≈ 107 µM) | 32 µg/mL (≈ 107 µM) | 8 µg/mL (≈ 26.7 µM) | 32 µg/mL (≈ 107 µM) | 16 µg/mL (≈ 53.4 µM) | 32 µg/mL (≈ 107 µM) | 32 µg/mL (≈ 107 µM) | 8 µg/mL (≈ 26.7 µM) | 16 µg/mL (≈ 53.4 µM) | 16 µg/mL (≈ 53.4 µM) | 16 µg/mL (≈ 53.4 µM) | 32 µg/mL (≈ 107 µM) | 16 µg/mL (≈ 53.4 µM) | 16 µg/mL (≈ 53.4 µM) | Resistance frequency [3]: 1.9 × 10^−7; MIC [2, 25]: 256 µg/mL (≈ 855 µM); MIC50 ([2]; Mycobacteroides abscessus): 16 µg/mL (≈ 53.4 µM); MIC90 ([2]; Mycobacteroides abscessus): 32 µg/mL (≈ 107 µM) |
| C[C@@H](O)[C@@H]1C(=O)N2C(C(=O)O)=C(SC3CN(C4=NCCS4)C3)S[C@@H]12 [T405] | – | – | – | – | – | – | – | – | – | – | – | – | – | – | – | – | – | – | – | – | concentration at 5 min [4]: 169 ng/mL; concentration at 0.25 h [4]: 157 ng/mL; concentration at 0.5 h [4]: 143 ng/mL; concentration at 1 h [4]: 65 ng/mL; concentration at 2 h [4]: 25.1 ng/mL |
| NC(=O)[C@@H]1CC[C@@H]2CN1C(=O)N2OS(=O)(=O)O [avibactam] | – | – | – | – | – | – | – | – | – | – | – | – | – | – | – | – | – | – | – | – | MIC ([2]; reference strain ATCC 19977): 256 µg/mL (≈ 965 µM) |
